According to patent publication US20210355532A1, “METHODS AND REAGENTS FOR DETECTING AND ASSESSING GENOTOXICITY” (TwinStrand Biosciences, Inc., priority 2018, published 2021):
“Also recorded” adds a separate entry of the source.

How the values were obtained:
Type in all cases: in vivo, mouse
[1] = system: BigBlue® transgenic C57BL/6 male mice; experiment: Duplex Sequencing mutant frequency and spectrum in BigBlue transgenic mice (cII transgene and endogenous genes)
Description: Tissues were collected and frozen on study day 31. Liver and bone marrow were analyzed for mutants. DNA was isolated and mutants analyzed for cII mutant plaques using RecoverEase and Transpack methods described by Agilent Technologies. Duplex Sequencing was used to sequence cII and other endogenous genes for mutations in liver and bone marrow.
Genes evaluated and criteria used to select genes are as follows: (1) Polr1c (RNA polymerase), which is ubiquitously transcribed in all tissue types; (2) Rho (Rhodopsin), which is not expressed in any tissue besides retina; (3) Hp (Haptoglobin), which is highly expressed in liver, but almost nowhere else; (4) Ctnnb1 (Beta-catenin), which is most commonly mutated gene in human hepatocellular carcinoma; and (5) CII: 360 bp transgenic reporter gene present in ˜80 copies in BigBlue® mice.
FIGS. 3A-3D are box plot graphs showing mutant frequencies calculated for Duplex Sequencing (FIGS. 3A and 3B) and the BigBlue® cII plaque assay (FIGS. 3C and 3D) in liver and bone marrow following mutagen treatment as described above. MF for Duplex Sequencing was based on total mutants per duplex base-pair sequenced (n=5 mice/group). MF for BigBlue® was calculated as number of mutant plaques relative to number of […] (n=6 mice/group).

Tg.rasH2 mice = experiment: Duplex Sequencing mutant frequency and spectrum in Tg.rasH2 mice dosed with urethane; details: for Mutation Frequency: urethane day 1,3,5, sacrifice day 29, Duplex Sequencing
Excerpt: (§1) In this example, the impact of a urethane is examined in different mouse tissue types (lung, spleen, blood) in an FDA-approved cancer-predisposed mouse model: Tg.rasH2 (Saitoh et al. Oncogene 1990. PMID 2202951). This mouse contains ˜3 tandem copies of human Hras with an activating enhancer mutation to boost expression on one hemizygous allele. These mice are predisposed to splenic angiosarcomas and lung adenocarcinomas, and are routinely used for 6 month carcinogenicity studies to substitute for 2 year native animal studies. Tumors found in the mice have usually acquired activating mutations in one copy of the human Hras protooncogene. In this addition to the 4 native mouse genes (Rho, Hp, Ctnnb1, Polr1c), the native mouse Hras and human Hras transgene are also analyzed in this example.
(§2) In this example, Tg.rasH2 mice (n=5/group) were dosed with vehicle or a carcinogenic dose of urethane (day 1,3,5) and sacrificed on day 29 for mutation detection by Duplex Sequencing in target tissues (lung, spleen) and whole blood. The endogenous genes (Rho, Hp, Ctnnb1, Polr1c) and the native mouse and human Hras (trans)genes were also sequenced.
FIG. 8 is a bar graph showing mutant frequency (MF) of lung, spleen and blood samples for control and experimental animals subjected to urethane. In this analysis, every unique variant detected was counted as one mutation, which were summed per sample. This was divided by the total number of Duplex Bases sequenced and across the entire capture region. The number of events is noted above each sample. In total, across all 30 samples, 3,966,947,832 Duplex Sequenced base pairs were generated.
Referring to FIG. 9 and Table 1 together, differences between vehicle control (VC) and treatment groups were highly significant. A Welch's t-test (for unequal variances) was used to determine the significance of the mutagen treated tissue's mutant frequency over that of the control for that tissue. The slightly wider confidence intervals with blood reflects a lower average depth of sequencing in the blood VC samples in this particular example. It is anticipated that this can be corrected using the methods described herein.

[2] = system: human HRAS transgene codon 61; experiment: Duplex Sequencing detection of clonal oncogenic mutations in human HRAS transgene of Tg.rasH2 mice; details: day 29
Excerpt: as §1, §2
FIG. 15A is a graph illustrating SNVs plotted over the genomic intervals for the exons captured from the Ras family of genes, including the human transgenic loci, in the Tg-rasH2 mouse model. Singlets are mutations found in a single molecule. Multiplets are an identical mutation identified within multiple molecules within the same sampler and may represent a clonal expansion event. The height of each point corresponds to the variant allele frequency (VAF) of each SNV, with the with the size of the point corresponds to the for multiplet observations only. The location and relative frequency of Ras family human cancer mutational hotspots in COSMIC are indicated below each gene. FIG. 15B is a graph illustrating single nucleotide variants (SNVs) aligning to exon 3 of the human HRAS transgene. Highlighted is the center residue in codon number 61 in exon 3 of human HRAS, the most common HRAS cancer-driving hotspot.

| Fold Increase of mutation frequency over vehicle control (Tg.rasH2 mice; Blood) [x] | Mutation Frequency (Tg.rasH2 mice; Blood, Tg.rasH2 mice) | Fold Increase of mutation frequency over vehicle control (Tg.rasH2 mice; Lung) [x] | Mutation Frequency (Tg.rasH2 mice; Lung, Tg.rasH2 mice) | Fold Increase of mutation frequency over vehicle control (Tg.rasH2 mice; Spleen) [x] | Mutation Frequency (Tg.rasH2 mice; Spleen, Tg.rasH2 mice) | Variant allele frequencies of HRAS codon 61 mutation ([2]; four out of five treated lung samples) | Fraction of treated samples with T>A transversions at human oncogenic Hras codon 61 hotspot ([2]; lung samples) | Fraction of treated samples with T>A transversions at human oncogenic Hras codon 61 hotspot ([2]; splenic samples) | Structure (SMILES) | MF in 4 endogenous genes (Polr1c, rhodopsin, haptoglobin, beta-catenin) ([1]; BigBlue mice, liver and bone marrow) | Mutation spectrum, distinguishing mutation types ([1]; aggregated across all genes, all tissues, unsupervised cluster analysis) | Mutation load relative to controls ([1]; bone marrow and liver, cII transgene, BigBlue mice, study day 31) | Trinucleotide context hotspots (most vulnerable contexts) ([1]; trinucleotide spectra, BigBlue mice) | Trinucleotide (triplet) mutation spectrum, predominant mutation (Tg.rasH2 mice; lung, spleen, blood, Tg.rasH2 mice) |
| --- | --- | --- | --- | --- | --- | --- | --- | --- | --- | --- | --- | --- | --- | --- |
|  |  |  |  |  |  |  |  |  | CCN(N=O)C(N)=O [ENU, N-ethyl-N-nitrosourea] | increased | preponderance of T→C, T→A, and C→T mutations | significantly increased relative to controls | GTS and GTG and GTC |  |
| 2.2 | 2.39e−07 | 7.5 | 5.04e−07 | 3.3 | 2.73e−07 | 0.1%-1.8% | ⅘ | ⅕ | CCOC(N)=O [Urethane, urethane] |  |  |  |  | T:A→A:T within the motif “NTG” is shown as the most common mutation; also recorded: strong propensity for T→A and T→C mutations within the context of “NTG” |
